Source: ChEMBL document CHEMBL3227939, “Synthesis of daunorubicin analogues with novel 9-acyl substituents” (1979)

Key:
L1210 [1] = experiment: Inhibition of RNA synthesis in mouse L1210 cells; type: functional; details: read-out: ED50 (the source's name)
L1210 [2] = experiment: Inhibition of DNA synthesis in mouse L1210 cells; type: functional; details: read-out: ED50 (the source's name)
P388 [3] = experiment: Antitumor activity against mouse P388 cells allografted in CDF/RDF mouse assessed as increase in survival time at 3.13 mg/kg, ip administered once daily on days 1 to 9 relative to control; type: functional; details: route intraperitoneal
P388 [4] = experiment: Antitumor activity against mouse P388 cells allografted in CDF/RDF mouse assessed as increase in survival time at 37.5 mg/kg, ip administered once daily on day 5, 9 and 13 relative to control; type: functional; details: route intraperitoneal
Calf thymus DNA = experiment: Binding affinity to calf thymus DNA assessed as change in melting temperature; type: nucleic-acid assay; details: Bos taurus
P388 [5] = experiment: Antitumor activity against mouse P388 cells allografted in CDF/RDF mouse assessed as increase in survival time at 4 mg/kg, ip administered once daily on days 1 to 9 relative to control; type: functional; details: route intraperitoneal
P388 [6] = experiment: Antitumor activity against mouse P388 cells allografted in CDF/RDF mouse assessed as increase in survival time at 50 mg/kg, ip administered once daily on day 5, 9 and 13 relative to control; type: functional; details: route intraperitoneal
P388 [7] = experiment: Antitumor activity against mouse P388 cells allografted in CDF/RDF mouse assessed as increase in survival time at 12.5 mg/kg, ip administered once daily on day 5, 9 and 13 relative to control; type: functional; details: route intraperitoneal

Q: Which results are given for `COc1cccc2c1C(=O)c1c(O)c3c(c(O)c1C2=O)C[C@@](O)(C(=O)C(C)C)C[C@@H]3O[C@H]1C[C@H](N)[C@H](O)[C@H](C)O1`?
A: EC50 (L1210 [1]): 400 nM; EC50 (L1210 [2]): 1000 nM; T/C (P388 [3]): 117%; T/C (P388 [4]): 122%; ΔTm (Calf thymus DNA): 10.3 °C

Q: What does the source list for `COc1cccc2c1C(=O)c1c(O)c3c(c(O)c1C2=O)C[C@@](O)(C=O)C[C@@H]3O[C@H]1C[C@H](N)[C@H](O)[C@H](C)O1`?
A: EC50 (L1210 [1]): 2000 nM; EC50 (L1210 [2]): 4100 nM; T/C (P388 [5]): 169%; ΔTm (Calf thymus DNA): 6.5 °C; T/C (P388 [6]): 154%

Q: Which results are given for `COc1cccc2c1C(=O)c1c(O)c3c(c(O)c1C2=O)C[C@@](O)(C(=O)CO)C[C@@H]3O[C@H]1C[C@H](N)[C@H](O)[C@H](C)O1` [DOXORUBICIN]?
A: EC50 (L1210 [1]): 580 nM; EC50 (L1210 [2]): 1500 nM

Q: For `COc1cccc2c1C(=O)c1c(O)c3c(c(O)c1C2=O)C[C@@](O)(C(=O)CCc1ccccc1)C[C@@H]3O[C@H]1C[C@H](N)[C@H](O)[C@H](C)O1`, which EC50 (L1210 [1]) is on record?
A: Its EC50 is 1600 nM.

Q: What about the EC50 (L1210 [2]) of the same molecule?
A: The EC50 was 1500 nM.

Q: And the ΔTm (Calf thymus DNA)?
A: The ΔTm was 8.6 °C.

Q: And the T/C (P388 [6])?
A: Its T/C is 129%.

Q: Which results are given for `COc1cccc2c1C(=O)c1c(O)c3c(c(O)c1C2=O)C[C@@](O)(C(C)=O)C[C@@H]3O[C@H]1C[C@H](N)[C@H](O)[C@H](C)O1` [DAUNORUBICIN]?
A: EC50 (L1210 [1]): 330 nM; EC50 (L1210 [2]): 660 nM

Q: For `CCC(=O)[C@]1(O)Cc2c(O)c3c(c(O)c2[C@@H](O[C@H]2C[C@H](N)[C@H](O)[C@H](C)O2)C1)C(=O)c1c(OC)cccc1C3=O`, which EC50 (L1210 [1]) is on record?
A: The EC50 was 290 nM.

Q: What about the EC50 (L1210 [2]) of the same molecule?
A: The EC50 was 670 nM.

Q: And the ΔTm (Calf thymus DNA)?
A: The ΔTm was 11 °C.

Q: What about the T/C (P388 [7]) of the same molecule?
A: Its T/C is 128%.
